The values below are quoted from earlier work in patent publication US7904011B2, “Temperature control unit and image forming apparatus including same” (Ricoh Company, Ltd., priority 2007, dated 2011).

The conditions of the data set: in vivo.
As to `[Cl-].[Na+]` [salt, reference compound], the “acute oral toxicity LD50” value is reported as 3 g/kg.
Regarding `CCOCCOC(=O)CCC(=O)OCCOCC` [diethoxyethyl succinate], the “acute oral toxicity LD50” value is reported as 5 g/kg.
As for `CC1COC(=O)O1` (stereo not drawn) [propylene carbonate], the “acute oral toxicity LD50” value is 29 g/kg.
